Results reported in patent publication US20240190874A1, “SMALL MOLECULE DEGRADERS OF ANDROGEN RECEPTOR” (THE REGENTS OF THE UNIVERSITY OF MICHIGAN, priority 2021, published 2024).
Like-named read-outs stand apart in the source and are kept apart here.

Key:
Assay type in all cases: cell-based
AR = target: T1, AR (Homo sapiens, UniProt P10275); assay: Degradation of AR in VCaP cells; details: for Dmax: VCaP
T1 construct: Degradation of AR; Cellular potency; host or cells: VCaP cells
T1 sequence (P10275 1-920): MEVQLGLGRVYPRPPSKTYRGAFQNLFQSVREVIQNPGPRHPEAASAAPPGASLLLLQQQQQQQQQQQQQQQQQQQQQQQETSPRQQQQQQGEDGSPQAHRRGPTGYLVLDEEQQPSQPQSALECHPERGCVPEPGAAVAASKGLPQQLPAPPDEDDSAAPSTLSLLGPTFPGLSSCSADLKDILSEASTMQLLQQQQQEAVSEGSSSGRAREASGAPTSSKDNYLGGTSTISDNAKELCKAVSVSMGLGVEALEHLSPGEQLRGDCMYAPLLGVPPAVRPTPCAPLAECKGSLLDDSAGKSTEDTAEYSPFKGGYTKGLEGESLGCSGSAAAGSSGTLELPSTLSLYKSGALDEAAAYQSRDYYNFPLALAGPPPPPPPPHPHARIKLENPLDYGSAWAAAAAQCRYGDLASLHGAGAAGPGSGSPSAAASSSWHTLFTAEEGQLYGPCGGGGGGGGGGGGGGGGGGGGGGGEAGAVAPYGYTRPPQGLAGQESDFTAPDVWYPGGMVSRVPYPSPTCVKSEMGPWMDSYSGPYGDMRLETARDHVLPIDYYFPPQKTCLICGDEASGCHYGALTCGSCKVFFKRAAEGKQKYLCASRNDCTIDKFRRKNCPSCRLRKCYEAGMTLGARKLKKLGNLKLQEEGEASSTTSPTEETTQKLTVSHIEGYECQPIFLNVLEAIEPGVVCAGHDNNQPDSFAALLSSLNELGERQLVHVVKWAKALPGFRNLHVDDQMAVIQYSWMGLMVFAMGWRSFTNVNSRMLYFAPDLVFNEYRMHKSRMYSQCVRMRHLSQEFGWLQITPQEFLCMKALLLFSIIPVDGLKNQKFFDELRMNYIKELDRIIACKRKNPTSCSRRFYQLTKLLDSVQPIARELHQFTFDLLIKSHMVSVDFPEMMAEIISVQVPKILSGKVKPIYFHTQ
Protocol: (§1) Biological Assays. LNCaP and VCaP cells used were purchased from American Type Culture Collection (ATCC). LNCaP were grown in RPMI 1640 (Invitrogen) and VCaP cells were grown in DMEM with Glutamax (Invitrogen). All of the cells were supplemented with 10% fetal bovine serum (Invitrogen) at 37° C. in a humidified 5% CO2 incubator.

LNCaP cells = assay: Cellular potency (IC50) in LNCaP cells
Protocol: as §1

VCaP cells = assay: Cellular potency (IC50) in VCaP cells
Protocol: as §1

SMILES | DC50 (AR; VCaP cells) [nM] | Dmax (AR; VCaP cells) [%] | IC50 (LNCaP cells; Homo sapiens, LNCaP) [nM] | IC50 (VCaP cells; Homo sapiens, VCaP) [nM] | IC50 (LNCaP cells) [nM] | IC50 (VCaP cells) [nM] | Dmax (AR) [%]
C[C@H]1CC2(CCN(c3ccc(S(=O)(=O)N4CCN(C5CCN(c6ccc7c(c6)C(=O)N(C6CCC(=O)NC6=O)C7=O)CC5)CC4)cc3)CC2)CN1c1ccc(C#N)c(Cl)c1 (stereo partly shown) [compound 1] | < 1 | > 90 |  |  |  |  | 
C[C@H]1CC2(CCN(c3ccc(S(=O)(=O)N4CCN(C5CN(c6ccc7c(c6)C(=O)N(C6CCC(=O)NC6=O)C7=O)C5)CC4)cc3)CC2)CN1c1ccc(C#N)c(Cl)c1 (stereo partly shown) [compound 2] | < 1 | > 90 | < 10 | < 10 |  |  | 
C[C@H]1CC2(CCN(c3ccc(S(=O)(=O)N4CCC(CN5Cc6cc7c(cc6C5)C(=O)N(C5CCC(=O)NC5=O)C7=O)CC4)cc3)CC2)CN1c1ccc(C#N)c(Cl)c1 (stereo partly shown) [compound 3] | < 1 | > 90 | < 10 | < 10 |  |  | 
C[C@H]1CC2(CCN(c3ccc(S(=O)(=O)N4CCC(N5Cc6cc7c(cc6C5)C(=O)N(C5CCC(=O)NC5=O)C7=O)CC4)cc3)CC2)CN1c1ccc(C#N)c(Cl)c1 (stereo partly shown) [compound 4] | < 1 | 70 to 90 | < 10 | < 10 |  |  | 
C[C@H]1CC2(CCN(c3ccc(CN4CCN(C5CN(c6ccc7c(c6)C(=O)N(C6CCC(=O)NC6=O)C7=O)C5)CC4)cc3)CC2)CN1c1ccc(C#N)c(Cl)c1 (stereo partly shown) [compound 5] | < 1 | > 90 | < 10 | < 10 |  |  | 
C[C@H]1CC2(CCN(c3ccc(CN4CCN(C5CN(c6ccc7c(c6)C(=O)N(C6CCC(=O)NC6=O)C7=O)C5)CC4)cc3)CC2)CN1c1ccc(C#N)c(Cl)c1 (stereo partly shown) [compound 6] | < 1 |  |  |  | < 10 | < 10 | 
C[C@H]1CC2(CCN(c3ccc(CN4CCN(C5CN(c6ccc7c(c6)C(=O)N(C6CCC(=O)NC6=O)C7=O)C5)CC4)c(F)c3)CC2)CN1c1ccc(C#N)c(Cl)c1 (stereo partly shown) [compound 8] | < 10 | 70 to 90 | < 100 | < 100 |  |  | 
COC1(CN2Cc3cc4c(cc3C2)C(=O)N(C2CCC(=O)NC2=O)C4=O)CCN(C(=O)c2ccc(N3CCC4(CC3)C[C@H](C)N(c3ccc(C#N)c(F)c3)C4)cc2)CC1 (stereo partly shown) [compound 13] | < 100 |  |  |  |  |  | > 90
C[C@H]1CC2(CCN(c3ccc(C4CCN(C(=O)CN5Cc6cc7c(cc6C5)C(=O)N(C5CCC(=O)NC5=O)C7=O)CC4)cc3)CC2)CN1c1ccc(C#N)c(Cl)c1 (stereo partly shown) [compound 15] | < 100 | > 90 |  |  |  |  | 
C[C@H]1CC2(CCN(c3ccc(N4CCN(CC5(F)CN(c6ccc7c(c6)C(=O)N(C6CCC(=O)NC6=O)C7=O)C5)CC4)cc3)CC2)CN1c1ccc(C#N)c(Cl)c1 (stereo partly shown) [compound 84] | < 1 | > 90 |  |  |  |  | 
COC1(CN2CCN(c3ccc(N4CCC5(CC4)C[C@H](C)N(c4ccc(C#N)c(Cl)c4)C5)cc3)CC2)CN(c2ccc3c(c2)C(=O)N(C2CCC(=O)NC2=O)C3=O)C1 (stereo partly shown) [compound 85] | < 1 | > 90 |  |  |  |  | 
C[C@H]1CC2(CCN(c3ccc(N4CCN(CC5(F)CN(c6ccc7c(c6)C(=O)N(C6CCC(=O)NC6=O)C7=O)C5)CC4)nc3)CC2)CN1c1ccc(C#N)c(Cl)c1 (stereo partly shown) [compound 86] | < 1 | > 90 |  |  |  |  | 
COC1(CN2CCN(c3ccc(N4CCC5(CC4)C[C@H](C)N(c4ccc(C#N)c(Cl)c4)C5)cn3)CC2)CN(c2ccc3c(c2)C(=O)N(C2CCC(=O)NC2=O)C3=O)C1 (stereo partly shown) [compound 87] | < 1 | > 90 |  |  |  |  | 
C[C@H]1CC2(CCN(c3ccc(N4CCN(CC5(F)CN(c6ccc7c(c6)C(=O)N(C6CCC(=O)NC6=O)C7=O)C5)CC4)cn3)CC2)CN1c1ccc(C#N)c(Cl)c1 (stereo partly shown) [compound 88] | < 1 | > 90 |  |  |  |  | 
COC1(CN2CCN(c3ccc(N4CCC5(CC4)C[C@H](C)N(c4ccc(C#N)c(Cl)c4)C5)nc3)CC2)CN(c2ccc3c(c2)C(=O)N(C2CCC(=O)NC2=O)C3=O)C1 (stereo partly shown) [compound 89] | < 1 | > 90 |  |  |  |  | 
C[C@H]1CC2(CCN(c3ccc(C(=O)C4CCN(CC(=O)N5Cc6cc7c(cc6C5)C(=O)N(C5CCC(=O)NC5=O)C7=O)CC4)cc3)CC2)CN1c1ccc(C#N)c(Cl)c1 (stereo partly drawn) [compound 147, 2-chloro-4-((3S)-8-(4-(1-(2-(6-(2,6-dioxopiperidin-3-yl)-5,7-dioxo-3,5,6,7-tetrahydropyrrolo[3,4-f]isoindol-2(1H)-yl)-2-oxoethyl)piperidine-4-carbonyl)phenyl)-3-methyl-2,8-diazaspiro[4.5]decan-2-yl)benzonitrile] |  |  | < 10 | < 100 |  |  | 
C[C@H]1CC2(CCN(c3ccc(C(=O)C4CCN(C(=O)CN5Cc6cc7c(cc6C5)C(=O)N(C5CCC(=O)NC5=O)C7=O)CC4)cc3)CC2)CN1c1ccc(C#N)c(Cl)c1 (stereo partly drawn) [compound 148, 2-chloro-4-((3S)-8-(4-(1-(2-(6-(2,6-dioxopiperidin-3-yl)-5,7-dioxo-3,5,6,7-tetrahydropyrrolo[3,4-f]isoindol-2(1H)-yl)acetyl)piperidine-4-carbonyl)phenyl)-3-methyl-2,8-diazaspiro[4.5]decan-2-yl)benzonitrile] |  |  | < 10 | < 100 |  |  | 
C[C@H]1CC2(CCN(c3ccc(CN4CCN(C5CN(c6cc7c(cc6F)C(=O)N(C6CCC(=O)NC6=O)C7=O)C5)CC4)cn3)CC2)CN1c1ccc(C#N)c(Cl)c1 (stereo partly drawn) [compound 153, 2-chloro-4-((3S)-8-(5-((4-(1-(2-(2,6-dioxopiperidin-3-yl)-6-fluoro-1,3-dioxoisoindolin-5-yl)azetidin-3-yl)piperazin-1-yl)methyl)pyridin-2-yl)-3-methyl-2,8-diazaspiro[4.5]decan-2-yl)benzonitrile] |  |  | < 10 | < 100 |  |  | 
C[C@H]1CC2(CCN(c3ccc(CN4CCN(C5CN(c6ccc7c(c6)C(=O)N(C6CCC(=O)NC6=O)C7=O)C5)CC4)cn3)CC2)CN1c1ccc(C#N)c(Cl)c1 (stereo partly shown) [compound 167] |  |  | < 10 | < 10 |  |  | 
C[C@H]1CC2(CCN(c3ccc(CN4CCN(C5CN(c6ccc7c(c6)C(=O)N(C6CCC(=O)NC6=O)C7=O)C5)CC4)nc3)CC2)CN1c1ccc(C#N)c(Cl)c1 (stereo partly drawn) [compound 169, 2-chloro-4-((3S)-8-(6-((4-(1-(2-(2,6-dioxopiperidin-3-yl)-1,3-dioxoisoindolin-5-yl)azetidin-3-yl)piperazin-1-yl)methyl)pyridin-3-yl)-3-methyl-2,8-diazaspiro[4.5]decan-2-yl)benzonitrile] |  |  | < 10 | < 10 |  |  | 
C[C@H]1CC2(CCN(c3cnc(CN4CCN(C5CN(c6ccc7c(c6)C(=O)N(C6CCC(=O)NC6=O)C7=O)C5)CC4)nc3)CC2)CN1c1ccc(C#N)c(Cl)c1 (stereo partly drawn) [compound 170, 2-chloro-4-((3S)-8-(2-((4-(1-(2-(2,6-dioxopiperidin-3-yl)-1,3-dioxoisoindolin-5-yl)azetidin-3-yl)piperazin-1-yl)methyl)pyrimidin-5-yl)-3-methyl-2,8-diazaspiro[4.5]decan-2-yl)benzonitrile] |  |  | < 10 | < 100 |  |  | 
C[C@H]1CC2(CCN(c3ccc(CN4CCC(C5CCN(c6ccc7c(c6)C(=O)N(C6CCC(=O)NC6=O)C7=O)CC5)CC4)cn3)CC2)CN1c1ccc(C#N)c(Cl)c1 (stereo partly drawn) [compound 180, 2-chloro-4-((3S)-8-(5-((1′-(2-(2,6-dioxopiperidin-3-yl)-1,3-dioxoisoindolin-5-yl)-[4,4′-bipiperidin]-1-yl)methyl)pyridin-2-yl)-3-methyl-2,8-diazaspiro[4.5]decan-2-yl)benzonitrile] |  |  | < 10 | < 100 |  |  | 
